How the values were obtained:
iNOS expression = assay: iNOS immunoblot in RAW 264.7 cells; type: cell-based, murine; conditions: lauric acid 1, 10, 50, 100 μM with BSA, 11 h
Procedure: (§1) Cell culture—RAW 264.7 cells (a murine macrophage-like cell line, ATCC TIB-71), 293T cells (a human embryonic kidney cell line, provided by Sam Lee, Beth Israel Hospital. Boston, Mass.), and HT-29 cells (a human colon adenocarcinoma cell line, ATCC HTB-38) were cultured in Dulbecco's modified Eagle's medium (DMEM) containing 10% (v/v) heat-inactivated fetal bovine serum (FBS, Intergen) and 100 units/ml Penicillin and […] Streptomycin (GIBCO-BRL) at 37° C. in a 5% CO2/air environment. Cells (2×10^6) were plated in 60-mm dishes and cultured for an additional 18 hours to allow the number of cells to approximately double. Cells were maintained in serum-poor (0.25% FBS) medium for another 18 hours prior to the treatment with indicated reagents.
(§2) Preparation of fatty acids-albumin complexes—All fatty acids were solubilized in ethanol, and then combined with fatty acid-free and low-endotoxin BSA at a molar ratio of 10:1 (fatty acid: albumin) in serum-poor medium (0.25% FBS). […]
(§3) After 11 h, cell lysates were analyzed by COX-2, iNOS, IL-1α, or GAPDH immunoblot using a Western blot analysis.
(§4) RAW 264.7 cells were pretested with various concentrations (5, 10, 20, and 50 μM) of docosahexaenoic acid (C22:6n-3) for 3 hours, and then stimulated with LPS (100 ng/ml) for 8 hours and analyzed by COX-2, iNOS, IL-1 a or GAPDH immunoblot.

IL-1α expression = assay: IL-1α immunoblot in RAW 264.7 cells; type: cell-based, murine; conditions: lauric acid 1, 10, 50, 100 μM with BSA, 11 h
Procedure: as §1, §2, §3, §4

[1] = tested on: constitutively active human TLR4 (CD4-TLR4); assay: NFκB reporter in 293T cells transfected with constitutively active TLR4; type: cell-based
Source text: Plasmids and DNA Constructs—All plasmids and constructs were obtained or made as reported in either S. H. Rhee and D. Hwang, “Murine TOLL-like receptor 4 confers lipopolysaccaride responsiveness as determined by activation of NFκB and expression of the inducible cyclooxygenase,” Journal of Biological Chemistry, vol. 275, pp. 34035-34040 (2000); and J. Y. Lee et al., “Saturated fatty acids, but not unsaturated fatty acids, induce the expression of cyclooxygenase-2 mediated through TOLL-like receptor 4,” Journal of Biological Chemistry, vol. 276, pp. 16683-16689 (2001). Briefly, the luciferase reporter plasmids (pGL2) containing the promoter region of the murine COX-2 gene (−3201/+93 or −1017/+93) were provided by David Dewitt (Michigan State University, East Lansing, Mich.). To prepare the wild-type COX-2 promoter fragment, polymerase chain reaction (PCR) was performed with the primers named Kpn-COX2-For and Hind-COX2-Rev using the murine COX-2 (−1017/+93) luciferase reporter plasmid as a template. To prepare the mutant COX-2 promoter fragment containing mutated NFκB site, Kpn-COX2-Fmut and Hind-COX2-Rev were used as primers. Each PCR fragment was inserted into the KpnI and HindIII sites of pGL2 to generate the wild-type or mutant COX-2 (−410/+86) luciferase reporter constructs, respectively. Sequences for wild-type NFκB site and the primers were used as reported elsewhere. […]

CCCCCCCCCCCC(=O)O [lauric acid]
iNOS expression induced by fatty acid (immunoblot) (iNOS expression): induced
IL-1α expression induced by fatty acid (immunoblot) (IL-1α expression): induced
effect on CD4-TLR4-induced NFκB activation [1]: potentiated

— patent US20030032674A1, “Use of unsaturated fatty acids to treat severe inflammatory diseases” (priority 2001, published 2003)
